Data as given in the NIST ThermoML archive (doi:10.1016/j.jct.2016.03.021).
Numbers after ± are expanded uncertainties.

Assay: wn = mass fraction of the nth substance listed
Settings: Liquid; for mass density: Vibrating tube method

CN(CCO)CCO [N-methyldiethanolamine] + O
mass density [kg/m3]
Settings	w1 = 0.1	w1 = 0.2002	w1 = 0.3	w1 = 0.4
333.15 K, 60000 kPa	–	–	–	1035 ± 0.7
333.15 K, 70000 kPa	1017.9 ± 0.7	1024.4 ± 0.7	1031.5 ± 0.7	1038.4 ± 0.7
333.15 K, 80000 kPa	1021.6 ± 0.7	1027.9 ± 0.7	1034.9 ± 0.7	1041.6 ± 0.7
333.15 K, 90000 kPa	1025.1 ± 0.7	1031.3 ± 0.7	1038.1 ± 0.7	1044.9 ± 0.7
333.15 K, 100000 kPa	1028.5 ± 0.7	1034.7 ± 0.7	1041.6 ± 0.7	1048.2 ± 0.7
333.15 K, 110000 kPa	1031.9 ± 0.7	1038 ± 0.7	1044.6 ± 0.7	1051.3 ± 0.7
333.15 K, 120000 kPa	1035.4 ± 0.7	1041.4 ± 0.7	1047.9 ± 0.7	1054.5 ± 0.8
333.15 K, 130000 kPa	1038.7 ± 0.7	1044.5 ± 0.7	1051 ± 0.8	1057.5 ± 0.8
333.15 K, 140000 kPa	1042 ± 0.7	1047.7 ± 0.8	1054.2 ± 0.8	1060.6 ± 0.8
353.15 K, 100 kPa	978.6 ± 0.7	985.3 ± 0.7	992 ± 0.7	998.1 ± 0.7
353.15 K, 500 kPa	978.7 ± 0.7	985.3 ± 0.7	992 ± 0.7	998.2 ± 0.7
353.15 K, 1000 kPa	978.9 ± 0.7	985.5 ± 0.7	992.2 ± 0.7	998.4 ± 0.7
353.15 K, 2000 kPa	979.3 ± 0.7	985.9 ± 0.7	992.7 ± 0.7	998.8 ± 0.7
353.15 K, 5000 kPa	980.6 ± 0.7	987.2 ± 0.7	993.9 ± 0.7	1000.1 ± 0.7
353.15 K, 10000 kPa	982.8 ± 0.7	989.4 ± 0.7	996.1 ± 0.7	1002.3 ± 0.7
353.15 K, 15000 kPa	984.9 ± 0.7	991.5 ± 0.7	998.2 ± 0.7	1004.4 ± 0.7
353.15 K, 20000 kPa	987 ± 0.7	993.5 ± 0.7	1000.3 ± 0.7	1006.5 ± 0.7
353.15 K, 30000 kPa	991.2 ± 0.7	997.6 ± 0.7	1004.3 ± 0.7	1010.5 ± 0.7
353.15 K, 40000 kPa	995.2 ± 0.7	1001.6 ± 0.7	1008.1 ± 0.7	1014.4 ± 0.7
353.15 K, 50000 kPa	999.1 ± 0.7	1005.5 ± 0.7	1012 ± 0.7	1018.2 ± 0.7
353.15 K, 60000 kPa	1003.1 ± 0.7	1009.3 ± 0.7	1015.9 ± 0.7	1022 ± 0.7
353.15 K, 70000 kPa	1006.9 ± 0.7	1012.9 ± 0.7	1019.5 ± 0.7	1025.6 ± 0.7
353.15 K, 80000 kPa	1010.5 ± 0.7	1016.6 ± 0.7	1023 ± 0.7	1029.1 ± 0.7
353.15 K, 90000 kPa	1014 ± 0.7	1020 ± 0.7	1026.4 ± 0.7	1032.6 ± 0.7
353.15 K, 100000 kPa	1017.7 ± 0.7	1023.6 ± 0.7	1029.9 ± 0.7	1036 ± 0.7
353.15 K, 110000 kPa	1021.2 ± 0.7	1027 ± 0.7	1033.3 ± 0.7	1039.3 ± 0.7
353.15 K, 120000 kPa	1024.6 ± 0.7	1030.4 ± 0.7	1036.6 ± 0.7	1042.5 ± 0.7
353.15 K, 130000 kPa	1028 ± 0.7	1033.6 ± 0.7	1039.8 ± 0.7	1045.8 ± 0.7
353.15 K, 140000 kPa	1031.2 ± 0.7	1036.8 ± 0.7	1042.9 ± 0.7	1048.9 ± 0.8
373.15 K, 100 kPa	964.4 ± 0.7	970.5 ± 0.7	976.5 ± 0.7	981.9 ± 0.7
373.15 K, 500 kPa	964.6 ± 0.7	970.7 ± 0.7	976.6 ± 0.7	982.1 ± 0.7
373.15 K, 1000 kPa	964.9 ± 0.7	970.9 ± 0.7	976.9 ± 0.7	982.4 ± 0.7
373.15 K, 2000 kPa	965.3 ± 0.7	971.4 ± 0.7	977.4 ± 0.7	982.8 ± 0.7
373.15 K, 5000 kPa	966.7 ± 0.7	972.8 ± 0.7	978.7 ± 0.7	984.2 ± 0.7
373.15 K, 10000 kPa	969 ± 0.7	975 ± 0.7	981.1 ± 0.7	986.5 ± 0.7
373.15 K, 15000 kPa	971.2 ± 0.7	977.2 ± 0.7	983.4 ± 0.7	988.8 ± 0.7
373.15 K, 20000 kPa	973.5 ± 0.7	979.5 ± 0.7	985.6 ± 0.7	991.1 ± 0.7
373.15 K, 30000 kPa	977.9 ± 0.7	983.9 ± 0.7	989.8 ± 0.7	995.5 ± 0.7
373.15 K, 40000 kPa	982.1 ± 0.7	988.2 ± 0.7	994.1 ± 0.7	999.8 ± 0.7
373.15 K, 50000 kPa	986.2 ± 0.7	992.1 ± 0.7	998.1 ± 0.7	1003.7 ± 0.7
373.15 K, 60000 kPa	990.1 ± 0.7	996.1 ± 0.7	1002.1 ± 0.7	1007.7 ± 0.7
373.15 K, 70000 kPa	994.2 ± 0.7	1000 ± 0.7	1005.9 ± 0.7	1011.6 ± 0.7
373.15 K, 80000 kPa	998.1 ± 0.7	1003.8 ± 0.7	1009.8 ± 0.7	1015.4 ± 0.7
373.15 K, 90000 kPa	1001.8 ± 0.7	1007.4 ± 0.7	1013.3 ± 0.7	1019 ± 0.7
373.15 K, 100000 kPa	1005.3 ± 0.7	1011.1 ± 0.7	1017 ± 0.7	1022.6 ± 0.7
373.15 K, 110000 kPa	1009 ± 0.7	1014.7 ± 0.7	1020.5 ± 0.7	1026.2 ± 0.7
373.15 K, 120000 kPa	1012.6 ± 0.7	1018.3 ± 0.7	1024 ± 0.7	1029.7 ± 0.7
373.15 K, 130000 kPa	1016 ± 0.7	1021.5 ± 0.7	1027.4 ± 0.7	1033 ± 0.7
373.15 K, 140000 kPa	1019.4 ± 0.7	1025 ± 0.7	1030.7 ± 0.7	1036.3 ± 0.7
393.15 K, 100 kPa	948.6 ± 0.7	954 ± 0.7	959.6 ± 0.7	964.2 ± 0.7
393.15 K, 500 kPa	949 ± 0.7	954.4 ± 0.7	959.9 ± 0.7	964.7 ± 0.7
393.15 K, 1000 kPa	949.2 ± 0.7	954.6 ± 0.7	960.1 ± 0.7	964.8 ± 0.7
393.15 K, 2000 kPa	949.6 ± 0.7	955.2 ± 0.7	960.6 ± 0.7	965.4 ± 0.7
393.15 K, 5000 kPa	951.1 ± 0.7	956.7 ± 0.7	962.1 ± 0.7	966.9 ± 0.7
393.15 K, 10000 kPa	953.6 ± 0.7	959.2 ± 0.7	964.7 ± 0.7	969.5 ± 0.7
393.15 K, 15000 kPa	956 ± 0.7	961.6 ± 0.7	967.1 ± 0.7	972 ± 0.7
393.15 K, 20000 kPa	958.5 ± 0.7	964 ± 0.7	969.6 ± 0.7	974.5 ± 0.7
393.15 K, 30000 kPa	963 ± 0.7	968.5 ± 0.7	974.2 ± 0.7	979.2 ± 0.7
393.15 K, 40000 kPa	967.6 ± 0.7	973.1 ± 0.7	978.7 ± 0.7	983.9 ± 0.7
393.15 K, 50000 kPa	971.8 ± 0.7	977.3 ± 0.7	983 ± 0.7	988.1 ± 0.7
393.15 K, 60000 kPa	976.2 ± 0.7	981.7 ± 0.7	987.4 ± 0.7	992.5 ± 0.7
393.15 K, 70000 kPa	980.4 ± 0.7	985.9 ± 0.7	991.6 ± 0.7	996.8 ± 0.7
393.15 K, 80000 kPa	984.3 ± 0.7	989.8 ± 0.7	995.4 ± 0.7	1000.8 ± 0.7
393.15 K, 90000 kPa	988.3 ± 0.7	993.7 ± 0.7	999.4 ± 0.7	1004.6 ± 0.7
393.15 K, 100000 kPa	992.1 ± 0.7	997.5 ± 0.7	1003.1 ± 0.7	1008.5 ± 0.7
393.15 K, 110000 kPa	995.9 ± 0.7	1001.4 ± 0.7	1006.9 ± 0.7	1012.3 ± 0.7
393.15 K, 120000 kPa	999.6 ± 0.7	1005 ± 0.7	1010.6 ± 0.7	1015.9 ± 0.7
393.15 K, 130000 kPa	1003.1 ± 0.7	1008.5 ± 0.7	1014.1 ± 0.7	1019.4 ± 0.7
393.15 K, 140000 kPa	1006.7 ± 0.7	1012 ± 0.7	1017.6 ± 0.7	1023 ± 0.7

viscosity [mPa·s]
Settings	w1 = 0.1	w1 = 0.2	w1 = 0.2002	w1 = 0.3	w1 = 0.4
333.15 K, 80000 kPa, Falling or rolling sphere viscometry	0.661 ± 0.02	–	0.942 ± 0.029	1.4 ± 0.043	2.134 ± 0.066
333.15 K, 100000 kPa, Falling or rolling sphere viscometry	0.672 ± 0.021	–	0.967 ± 0.03	1.435 ± 0.044	2.206 ± 0.068
333.15 K, 120000 kPa, Falling or rolling sphere viscometry	0.68 ± 0.021	–	0.982 ± 0.03	1.468 ± 0.045	2.28 ± 0.07
353.15 K, 93 kPa, Concentric cylinders viscometry	–	0.6205 ± 0.013	–	0.8505 ± 0.018	1.186 ± 0.025
353.15 K, 100 kPa, Falling or rolling sphere viscometry	–	0.617 ± 0.019	0.617 ± 0.019	0.854 ± 0.026	1.181 ± 0.036
353.15 K, 5000 kPa, Falling or rolling sphere viscometry	–	–	0.62 ± 0.019	0.862 ± 0.027	1.193 ± 0.037
353.15 K, 10000 kPa, Falling or rolling sphere viscometry	–	–	0.625 ± 0.019	0.869 ± 0.027	1.204 ± 0.037
353.15 K, 20000 kPa, Falling or rolling sphere viscometry	–	–	0.633 ± 0.02	0.881 ± 0.027	1.229 ± 0.038
353.15 K, 30000 kPa, Falling or rolling sphere viscometry	–	–	0.64 ± 0.02	0.894 ± 0.028	1.253 ± 0.039
353.15 K, 40000 kPa, Falling or rolling sphere viscometry	–	–	0.647 ± 0.02	0.907 ± 0.028	1.276 ± 0.039
353.15 K, 60000 kPa, Falling or rolling sphere viscometry	–	–	0.661 ± 0.02	0.932 ± 0.029	1.322 ± 0.041
353.15 K, 80000 kPa, Falling or rolling sphere viscometry	–	–	0.675 ± 0.021	0.959 ± 0.03	1.368 ± 0.042
353.15 K, 100000 kPa, Falling or rolling sphere viscometry	–	–	0.691 ± 0.021	0.997 ± 0.031	1.419 ± 0.044
353.15 K, 120000 kPa, Falling or rolling sphere viscometry	–	–	0.705 ± 0.022	1.018 ± 0.031	1.467 ± 0.045
